Reference: patent US20040127518A1, “Modulation of anxiety through blockade of anandamide hydrolysis” (priority 2002, published 2004)

Key:
brain FAAH activity = target: T1, brain FAAH activity (Rattus norvegicus, UniProt P97612); assay: Brain FAAH activity after systemic (i.p.) administration; assay type: in vivo; conditions: ip, six experiments, read-out: half-maximal inhibition of brain FAAH activity (ID50)
T1 construct: from tissue; host or cells: rat brain (membrane fraction of homogenate; Wistar rats)
T1 sequence (P97612 1-579): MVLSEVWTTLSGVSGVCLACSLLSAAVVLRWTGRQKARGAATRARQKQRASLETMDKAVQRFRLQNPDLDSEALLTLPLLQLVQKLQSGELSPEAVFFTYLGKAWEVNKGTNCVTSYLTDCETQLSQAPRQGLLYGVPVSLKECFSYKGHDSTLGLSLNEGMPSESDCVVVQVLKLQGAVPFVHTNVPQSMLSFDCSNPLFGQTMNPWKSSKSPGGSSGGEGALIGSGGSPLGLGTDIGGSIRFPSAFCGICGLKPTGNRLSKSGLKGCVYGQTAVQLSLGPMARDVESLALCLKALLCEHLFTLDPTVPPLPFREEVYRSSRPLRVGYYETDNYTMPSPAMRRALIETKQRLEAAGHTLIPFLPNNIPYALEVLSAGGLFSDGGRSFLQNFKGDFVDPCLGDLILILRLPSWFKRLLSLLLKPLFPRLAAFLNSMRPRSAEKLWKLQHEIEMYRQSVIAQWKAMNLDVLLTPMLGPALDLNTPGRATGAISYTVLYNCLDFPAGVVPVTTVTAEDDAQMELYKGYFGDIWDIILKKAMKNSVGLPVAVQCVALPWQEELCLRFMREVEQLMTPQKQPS

Elevated zero maze test = assay type: in vivo, rat; conditions: adult rats; i.p. 30 min before test; UCM532 5 and 10 mg kg-1; UCM597 0.05-0.1 mg kg-1
Description: (§1) We dissolved FAAH inhibitors and rimonabant in dimethylsulfoxide (DMSO)/saline (7/3 and 9/1, respectively); we administered FAAH inhibitors by i.p. injection 30 min before tests and rimonabant 30 min before UCM532. The elevated zero maze was comprised of a black Perspex annular platform (105 cm diameter, 10 cm width) elevated to 65 cm above ground level, divided equally into four quadrants (Bickerdike, M. J. et al., Eur. J. Pharmacol., 271, 403-411 (1994); Shepherd, J. K. et al., Psychopharmacology, 116, 56-64 (1994)). […] We placed the rats in a closed quadrant and video recorded them for 5-min periods, thoroughly cleaning the maze between sessions. […] Results are expressed as percent time in open quadrant/total time (percent time open). Results were analyzed by one-way ANOVA followed by Tukey's test. We recorded motor activity of each rat in an Opto-Varimex cage (Columbus Instruments, Columbus, Ohio) linked on-line to a computer and placed in a sound-attenuated room illuminated by a 20-W white light. The amount of time spent in ambulatory activity was analyzed using an Auto-Track software (Columbus Instruments, Columbus, Ohio) as described elsewhere (Ali, M. M. et al., Neurosci. Lett., 284, 57-60 (2000); Wedzony, K. et al., Neuropsychopharmacology, 23, 547-559 (2000)). […] We analyzed data by overall one-way ANOVA followed by Tukey's test for individual between-group comparisons. […]

[1] = Motor activity (Opto-Varimex cage); assay type: in vivo, rat
Description: as §1

[2] = target: T2, rat brain monoglyceride lipase (MGL) (Rattus norvegicus, UniProt Q8R431); assay: Cytosol MGL activity, 2-mono-oleoyl-glycerol as substrate
T2 sequence (Q8R431 1-303): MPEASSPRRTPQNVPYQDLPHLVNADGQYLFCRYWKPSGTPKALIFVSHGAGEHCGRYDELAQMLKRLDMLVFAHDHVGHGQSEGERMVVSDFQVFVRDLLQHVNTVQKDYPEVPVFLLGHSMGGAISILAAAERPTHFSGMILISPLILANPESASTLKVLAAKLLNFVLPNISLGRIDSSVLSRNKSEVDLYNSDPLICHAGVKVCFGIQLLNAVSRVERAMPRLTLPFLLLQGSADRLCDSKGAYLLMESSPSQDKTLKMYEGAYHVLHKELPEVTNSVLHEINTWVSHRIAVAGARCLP
Description: We prepared cell fractions from rat brain homogenates, and assayed membrane FAAH activity and cytosol MGL activity using anandamide [ethanolamine-3H] (American Radiolabeled Chemicals, ARC (St. Louis Mo.), 60 Ci/mmol) and 2-mono-oleoyl-glycerol-[glycerol-1,2,3^−3H] (ARC, St. Louis Mo., 20 Ci/mmol), respectively, as substrates (Dinh, T. Proc. Natl. Acad. Sci. U.S.A. (2002)). We conducted [^3H]anandamide transport assays in human astrocytoma cells (Piomelli, D. et al., Proc. Natl. Acad. Sci. U.S.A., 96, 5802-5807 (1999)); CB1 and CB2 binding assays in rat cerebellar membranes and CB2-overexpressing Chinese hamster ovary cells (Receptor Biology-Perkin Elmer, Wellesley, Mass.), respectively, using [^3H]WIN-55212-2 (NEN-Dupont, Boston, Mass., 40-60 Ci/mmol) as a ligand (Devane, W. A. et al. Science, 258, 1946-1949 (1992)); cholinesterase assays with a commercial kit (Sigma, St. Louis, Mo.), using purified enzymes (electric eel acetylcholinesterase type V-S and horse serum cholinesterase; both from Sigma, St. Louis, Mo.) and following manufacturer's instructions.

## CCCCNC(=O)Oc1ccc(OCc2ccccc2)cc1 [UCM532, n-Butylcarbamic acid 4-benzyloxyphenyl ester]
Brain FAAH activity
  ED50: 0.6 ± 0.09 mg/kg
Elevated zero maze test
  percent time open, elevated zero maze: anxiolytic-like responses
[1]; adult rats, 20 min session, ≧10 mg kg-1
  ambulation time: modest decrease
[1]; rat pups, 5 mg kg-1, data not shown
  pup movement: no effect
[2]
  effect on MGL activity (in words): did not affect
[2]; Table 2
  MGL SI (maximal concentration tested/IC50 for FAAH): ≧100
  MGL: maximal concentration of FAAH inhibitor tested: >30 µM
